Series [1] is described as follows: Apparent permeability across basolateral to apical side in MDCK cells at […] incubated for 60 mins by HPLC analysis. The class given is ADME, cell-based, Canis lupus familiaris. Particulars: dog; for Papp B→A at 1 h: MDCK.
Series [2] is described as follows: Apparent permeability across apical to basolateral side in MDCK cells at […] incubated for 60 mins by HPLC analysis. The class given is ADME, cell-based, Canis lupus familiaris. Particulars: dog; for Papp A→B at 1 h: MDCK.
The subject of series [3] is Mycobacterium tuberculosis. As to the kind of experiment: Antimycobacterial activity against Mycobacterium tuberculosis H37Rv assessed as reduction in bacterial cell growth incubated for 8 days measured under aerobic MABA conditions by alamar blue staining based assay. The class given is functional. To be noted: 192 h.
Series [4] has as its system Mycobacterium tuberculosis. Put plainly: Antimycobacterial activity against Mycobacterium tuberculosis H37Rv assessed as reduction in bacterial cell growth incubated for 11 days measured under anaerobic LORA condition by luminescence assay. The class given is functional. To be noted: 264 h.
A short description of series [5]: Cytotoxicity against African green monkey Vero cells assessed as reduction in cell viability incubated for 72 hrs by MTT assay. Type of series: cell-based. Particulars: chlorocebus sabaeus.
A short description of series [6]: Efflux ratio of apparent permeability across basolateral to apical over apical to basolateral side in MDCK cells at […] incubated for 60 mins by HPLC analysis. The class given is ADME, cell-based, Canis lupus familiaris. Particulars: dog.
Series [7] can be described thus: Solubility of the compound in water at pH 6.5 by HPLC analysis. Type of series: physicochemical.
Series [8] is described as follows: Solubility of the compound in water at pH 2 by HPLC analysis. Type of series: physicochemical.

≈ marks a conversion by molar mass, not a printed value.

In the case of `C[C@]1(COc2ccc(N3CCC(Oc4ccc(OC(F)(F)F)cc4)CC3)cc2)Cn2cc([N+](=O)[O-])nc2O1`, the Papp B→A at 1 h in series [1] worked out at 0.17 ×10⁻⁶ cm/s. The apparent permeability from apical to basolateral (Papp A→B) at 1 h in series [2] is 0.09 ×10⁻⁶ cm/s. Also, the MIC in series [3] was below 0.031 µg/mL; in series [4], 1.23 µg/mL (≈ 2.3 µM).

Take `C[C@]1(CN2CCc3nc(-c4cc(F)ccc4Cl)ccc3C2)Cn2cc([N+](=O)[O-])nc2O1`: the CC50 at 72 h in series [5] is above 32 µg/mL. Moreover, the minimum inhibitory concentration (MIC) is 0.15 µg/mL (≈ 0.338 µM) in series [3] and 4.28 µg/mL (≈ 9.64 µM) in series [4].

Take `C[C@]1(CN2CCc3nc(-c4cc(F)cc(F)c4)ccc3C2)Cn2cc([N+](=O)[O-])nc2O1`: in series [5], the CC50 at 72 h was above 32 µg/mL. The minimum inhibitory concentration (MIC) in series [3] came out at 0.03 µg/mL (≈ 0.0702 µM); in series [4] it was 1.64 µg/mL (≈ 3.84 µM).

On to `C[C@]1(CN2CCc3nc(-c4ccc(F)c(Cl)c4)ccc3C2)Cn2cc([N+](=O)[O-])nc2O1`, for which, in series [5], the 50% cytotoxic concentration (CC50) at 72 h was above 32 µg/mL. The minimal inhibitory concentration (MIC) came to 0.03 µg/mL (≈ 0.0676 µM) in series [3] and 3.82 µg/mL (≈ 8.61 µM) in series [4].

For the compound `C[C@]1(CN2CCc3oc(-c4ccc(F)cc4)nc3C2)Cn2cc([N+](=O)[O-])nc2O1`, the CC50 at 72 h in series [5] was above 32 µg/mL.

Take `C[C@]1(CN2CCc3nc(-c4ccccc4)ccc3C2)Cn2cc([N+](=O)[O-])nc2O1`: the efflux ratio at 1 h in series [6] (MDCK) was 1.35. Moreover, in series [1], the basolateral-to-apical permeability (Papp B→A) at 1 h was 22.7 ×10⁻⁶ cm/s. The half-maximal cytotoxic concentration (CC50) at 72 h in series [5] was above 32 µg/mL. The Papp A→B at 1 h in series [2] is 16.8 ×10⁻⁶ cm/s. In addition, the solubility in series [7] worked out at 3.35 µM (≈ 1.31 µg/mL); in series [8], 130 µM (≈ 50.7 µg/mL).

On to `C[C@]1(CN2CCc3nc(-c4ccccc4F)ccc3C2)Cn2cc([N+](=O)[O-])nc2O1`, for which the CC50 at 72 h in series [5] was above 32 µg/mL. In addition, the MIC was 0.05 µg/mL (≈ 0.122 µM) in series [3] and 5 µg/mL (≈ 12.2 µM) in series [4].

For the compound `C[C@]1(CN2CCc3nc(-c4ccc(Cl)cc4F)ccc3C2)Cn2cc([N+](=O)[O-])nc2O1`, the CC50 at 72 h in series [5] was above 32 µg/mL. Also, the values for the MIC in series [3] and in series [4] were 0.03 µg/mL (≈ 0.0676 µM) and 5.28 µg/mL (≈ 11.9 µM), respectively.

Turning to `C[C@]1(CN2CCc3nc(-c4cc(F)ccc4F)ccc3C2)Cn2cc([N+](=O)[O-])nc2O1`, the 50% cytotoxic concentration (CC50) at 72 h in series [5] is above 32 µg/mL. Moreover, the MIC in series [3] worked out at 0.05 µg/mL (≈ 0.117 µM); in series [4], 5.14 µg/mL (≈ 12 µM).

Turning to `C[C@]1(CN2CCc3nc(-c4ccc(F)cc4)ccc3C2)Cn2cc([N+](=O)[O-])nc2O1`, the Ratio in series [6] (mdck, 1 h, 100000 µM) amounted to 1.09. Besides, the apparent permeability coefficient (Papp) in series [1] (mdck, 1 h, 100000 µM) worked out at 19.29 ×10⁻⁶ cm/s; in series [2] (mdck, 1 h, 100000 µM), 20.92 ×10⁻⁶ cm/s. Also, in series [5], the CC50 at 72 h is above 32 µg/mL. Further, the MIC in series [3] was below 0.031 µg/mL; in series [4] it was 4.83 µg/mL (≈ 11.8 µM). Also, the solubility was 9.41 µM (≈ 3.85 µg/mL) in series [7] and 143 µM (≈ 58.7 µg/mL) in series [8].

On to `C[C@]1(CN2CCc3nc(-c4cc(F)c(F)c(F)c4)ccc3C2)Cn2cc([N+](=O)[O-])nc2O1`, for which the cytotoxic concentration (CC50) at 72 h in series [5] is above 32 µg/mL. For the same compound, the MIC in series [3] was determined as 0.08 µg/mL (≈ 0.18 µM); in series [4] it was 0.76 µg/mL (≈ 1.71 µM). Further, the solubility in series [7] was below 1 µM; in series [8] it was above 200 µM.

For the compound `C[C@]1(CN2CCc3nc(-c4cc(Cl)ccc4F)ccc3C2)Cn2cc([N+](=O)[O-])nc2O1`, in series [5], the half-maximal cytotoxic concentration (CC50) at 72 h was above 32 µg/mL. For the same compound, the MIC in series [3] stood at 0.04 µg/mL (≈ 0.0901 µM); in series [4], 8.79 µg/mL (≈ 19.8 µM).

On to `C[C@]1(CN2CCc3nc(-c4ccc(F)c(F)c4)oc3C2)Cn2cc([N+](=O)[O-])nc2O1`, for which the CC50 at 72 h in series [5] was above 32 µg/mL.

As for `C[C@]1(CN2CCc3nc(-c4ccc(Cl)c(F)c4)ccc3C2)Cn2cc([N+](=O)[O-])nc2O1`, the half-maximal cytotoxic concentration (CC50) at 72 h in series [5] is above 32 µg/mL. Also, the MIC in series [3] was 0.03 µg/mL (≈ 0.0676 µM); in series [4], 3.79 µg/mL (≈ 8.54 µM).

As to `C[C@]1(CN2CCc3nc(-c4ccc(F)cc4F)ccc3C2)Cn2cc([N+](=O)[O-])nc2O1`, the 50% cytotoxic concentration (CC50) at 72 h in series [5] is 12.5 µg/mL (≈ 29.2 µM). Besides, the minimal inhibitory concentration (MIC) in series [3] is 0.03 µg/mL (≈ 0.0702 µM); in series [4], above 8 µg/mL.

As for `C[C@]1(CN2CCc3nc(-c4cc(F)cc(Cl)c4)ccc3C2)Cn2cc([N+](=O)[O-])nc2O1`, the CC50 at 72 h in series [5] was above 32 µg/mL. Also, the MIC in series [3] is 0.03 µg/mL (≈ 0.0676 µM); in series [4] it was 6.41 µg/mL (≈ 14.4 µM).

For `C[C@]1(CN2CCc3nc(-c4cccc(Cl)c4F)ccc3C2)Cn2cc([N+](=O)[O-])nc2O1`, in series [5], the 50% cytotoxic concentration (CC50) at 72 h is above 32 µg/mL. Moreover, the values for the minimal inhibitory concentration (MIC) in series [3] and in series [4] were 0.03 µg/mL (≈ 0.0676 µM) and 5.71 µg/mL (≈ 12.9 µM), respectively.

`C[C@]1(CN2CCc3nc(-c4ccc(F)cc4)oc3C2)Cn2cc([N+](=O)[O-])nc2O1`: the CC50 at 72 h in series [5] is above 32 µg/mL.

Consider `C[C@]1(CN2CCc3nc(-c4cccc(F)c4)ccc3C2)Cn2cc([N+](=O)[O-])nc2O1`, for which the cytotoxic concentration (CC50) at 72 h in series [5] was above 32 µg/mL. Further, the MIC is 0.02 µg/mL (≈ 0.0488 µM) in series [3] and 6.5 µg/mL (≈ 15.9 µM) in series [4].

Regarding `C[C@]1(CN2CCc3nc(-c4cccc(F)c4F)ccc3C2)Cn2cc([N+](=O)[O-])nc2O1`, the half-maximal cytotoxic concentration (CC50) at 72 h in series [5] is above 32 µg/mL. In addition, the results for the MIC in series [3] and in series [4] were 0.03 µg/mL (≈ 0.0702 µM) and 3.72 µg/mL (≈ 8.7 µM), respectively.

Regarding `C[C@]1(CN2CCc3nc(-c4ccc(C(F)(F)F)cc4)ccc3C2)Cn2cc([N+](=O)[O-])nc2O1`, in series [5], the CC50 at 72 h was above 32 µg/mL. Also, the minimum inhibitory concentration (MIC) in series [3] was 0.03 µg/mL (≈ 0.0653 µM); in series [4] it was above 8 µg/mL.

For the compound `C[C@]1(CN2CCc3nc(C4CCCCC4)ccc3C2)Cn2cc([N+](=O)[O-])nc2O1`, the minimal inhibitory concentration (MIC) was found to be 0.03 µg/mL (≈ 0.0755 µM) in series [3] and 7.21 µg/mL (≈ 18.1 µM) in series [4].

For `C[C@]1(CN2CCc3nc(-c4ccc(F)c(F)c4)ccc3C2)Cn2cc([N+](=O)[O-])nc2O1`, the CC50 at 72 h in series [5] was above 32 µg/mL. Moreover, the MIC in series [3] came to 0.03 µg/mL (≈ 0.0702 µM); in series [4] it was 3.88 µg/mL (≈ 9.08 µM).

For the compound `C[C@]1(CN2CCc3nc(-c4ccc(F)cc4)sc3C2)Cn2cc([N+](=O)[O-])nc2O1`, the half-maximal cytotoxic concentration (CC50) at 72 h in series [5] was above 32 µg/mL.

With `CO[C@H]1/C=C/O[C@@]2(C)Oc3c(C)c(O)c4c(O)c(c(/C=N/N5CCN(C)CC5)c(O)c4c3C2=O)NC(=O)/C(C)=C\C=C\[C@H](C)[C@H](O)[C@@H](C)[C@@H](O)[C@@H](C)[C@H](OC(C)=O)[C@@H]1C` [RIFAMPIN], the CC50 at 72 h in series [5] is above 32 µg/mL. For the same compound, the minimum inhibitory concentration (MIC) in series [3] came to 0.1 µg/mL (≈ 0.122 µM); in series [4] it was 0.72 µg/mL (≈ 0.875 µM).
